From patent US8980311B2, “Liposome-mediated ligation” (University of Georgia Research Foundation, Inc., priority 2006, dated 2015) come the findings set out here.

Where a SMILES comes first, the peptide text is derived from it. The star is where a group is joined. Propyl(2R-PamO,3-PamO) = CCCCCCCCCCCCCCCC(=O)OC[C@H](C*)OC(=O)CCCCCCCCCCCCCCC; Palmitoyl = CCCCCCCCCCCCCCCC(=O)*; SBn = c1ccc(CS*)cc1

For the series the following is noted: phosphate buffer containing 6 M guanidinium-hydrochloride.

As to `CCCCCCCCCCCCCCCC(=O)N[C@@H](CSC[C@@H](COC(=O)CCCCCCCCCCCCCCC)OC(=O)CCCCCCCCCCCCCCC)C(=O)N[C@@H](CO)C(=O)N[C@@H](CCCCN)C(=O)N[C@@H](CCCCN)C(=O)N[C@@H](CCCCN)C(=O)N[C@@H](CCCCN)C(=O)NCC(=O)SCc1ccccc1` [Compound 6] (Palmitoyl-C(Propyl(2R-PamO,3-PamO))SKKKKG-SBn), the solubility result is on record as “poor solubility”.
